Legend:
[1] = target: T1, Aldo-keto reductase family 1 member C1 (Homo sapiens, UniProt Q04828); test: Inhibition of 20-alpha HSD
T1 sequence (Q04828 whole entry): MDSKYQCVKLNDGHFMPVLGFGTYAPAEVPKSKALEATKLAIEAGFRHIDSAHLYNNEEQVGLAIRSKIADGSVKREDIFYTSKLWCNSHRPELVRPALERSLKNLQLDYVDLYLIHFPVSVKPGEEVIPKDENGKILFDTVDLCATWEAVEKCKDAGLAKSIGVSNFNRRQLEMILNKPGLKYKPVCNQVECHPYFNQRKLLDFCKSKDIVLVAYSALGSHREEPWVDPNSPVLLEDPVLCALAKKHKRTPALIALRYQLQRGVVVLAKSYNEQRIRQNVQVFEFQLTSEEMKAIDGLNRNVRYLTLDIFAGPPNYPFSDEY

[2] = target: T2, Aldo-keto reductase family 1 member C3 (Homo sapiens, UniProt P42330); test: Inhibition of human recombinant type 2 3-alpha-HSD expressed in Escherichia coli JM109
T2 sequence (P42330 whole entry): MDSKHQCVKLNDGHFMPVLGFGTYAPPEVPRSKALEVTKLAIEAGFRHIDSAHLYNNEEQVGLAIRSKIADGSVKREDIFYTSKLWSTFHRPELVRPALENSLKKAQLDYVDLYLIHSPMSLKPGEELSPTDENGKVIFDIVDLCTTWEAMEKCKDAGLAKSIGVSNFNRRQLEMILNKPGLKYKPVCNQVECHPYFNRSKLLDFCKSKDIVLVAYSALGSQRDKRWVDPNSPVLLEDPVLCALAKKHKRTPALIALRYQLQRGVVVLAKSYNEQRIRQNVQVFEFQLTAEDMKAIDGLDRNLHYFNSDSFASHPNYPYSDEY

[3] = Cytotoxicity against BAEC assessed as cell viability at 10 uM; assay type: cell-based, Bos taurus; details: cattle
[4] = target: T3, Aldo-keto reductase family 1 member C4 (Homo sapiens, UniProt P17516); test: Inhibition of human recombinant type 1 3-alpha-HSD expressed in Escherichia coli JM109
T3 sequence (P17516 whole entry): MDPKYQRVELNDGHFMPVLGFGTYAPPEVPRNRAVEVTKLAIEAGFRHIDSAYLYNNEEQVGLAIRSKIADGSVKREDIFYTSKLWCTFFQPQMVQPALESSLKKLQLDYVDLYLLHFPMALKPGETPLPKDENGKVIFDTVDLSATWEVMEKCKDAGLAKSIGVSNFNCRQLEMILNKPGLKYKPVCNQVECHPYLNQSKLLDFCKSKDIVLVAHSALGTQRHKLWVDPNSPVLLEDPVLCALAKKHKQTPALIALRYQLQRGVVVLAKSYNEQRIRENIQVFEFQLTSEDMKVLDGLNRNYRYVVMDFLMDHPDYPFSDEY

[5] = target: T1, Aldo-keto reductase family 1 member C1
Description: Inhibition of human recombinant 20-alpha HSD expressed in Escherichia coli JM109

[6] = target: T4, Aldo-keto reductase family 1 member C1 (Homo sapiens) (UniProt Q04828); details: 10 uM
T4 sequence (whole entry): T1 sequence (Q04828 whole entry)

Row | Structure (SMILES) | Ki [2] | Ki ([4]; read-out: Ki) | Ki [5] | inhibition [6] | Ki [4] | IC50 [1] | Activity [3]
1 | O=C1OC(c2cc(Br)c(O)c(Br)c2)(c2cc(Br)c(O)c(Br)c2)c2ccccc21 | – | – | – | – | – | 0.033 µM | –
2 | O=C(O)c1cc(Br)cc(-c2ccccc2)c1O | 21 µM | – | 0.14 µM | 40% | Not Active | – | Non-toxic
3 | CCc1oc2ccccc2c1C(=O)c1cc(Br)c(O)c(Br)c1 [BENZBROMARONE] | – | – | – | – | – | 0.048 µM | –

More lines, main results first:

Row | Ki [2] | Ki ([4]; read-out: Ki) | Ki [5] | inhibition [6] | Ki [4] | Structure (SMILES) | IC50 [1] | Activity [3]
4 | 23 µM | 45.7 µM | – | – | – | O=C(O)c1cc(Br)cc(Br)c1O | – | Non-toxic
5 | 4.2 µM | 18.2 µM | – | – | – | O=C(O)c1cc(-c2ccccc2)cc(Br)c1O | – | Non-toxic

Reference: ChEMBL document CHEMBL1138501, “Structure-guided design, synthesis, and evaluation of salicylic acid-based inhibitors targeting a selectivity pocket in the active site of human 20alpha-hydroxysteroid dehydrogenase (AKR1C1)” (J Med Chem, 2009)
